Data as given in patent US20260137698A1, “CYCLIN-DEPENDENT KINASE 7 INHIBITORS” (JOINT STOCK COMPANY «BIOCAD», priority 2022, published 2026).
Where two headings read alike, the source gives them in different places.

What was measured:
[1] = Microsomal stability in rat liver microsomes (RLM); format: in vitro ADME; details: rat liver microsomes 0.5 mg/ml, 1 μM compound, NADPH
Description: The procedure for investigating the metabolism of selected compounds was carried out in microsomal fractions of the liver (of rats, mice, humans) in the presence of a phase I metabolism cofactor (NADPH).
The rate of enzymatic decomposition of the compound in liver microsomes in in vitro analysis was determined by keeping a reaction mixture comprising 0.5 mg/ml of pooled human, rat or mouse liver microsomes, 1 μM test compound, 1.5 mM […] (Carbosynth, UK, cat. no. NN108711101) and 1.5 mM magnesium chloride in 0.1 M sodium phosphate buffer (pH 7.4) in a solid-state thermostat at 37° C. (XenoTech, USA, order no. H2610, cat. no. R1000, cat. no. M1000). Incubation was carried out in three replicates.
To determine the stability of compounds under sample preparation conditions, an aliquot in two replicates with the test compound and a microsomal fraction devoid of the NADPH cofactor, which was incubated for 40 minutes at 37° C.
Reactions were stopped at 0, 10, 20, 30 and 40 min time points by way of adding an ice mixture of acetonitrile:methanol (3:1) comprising an internal standard.
Samples were then centrifuged to remove the precipitated protein, supernatants were analyzed using HPLC-MS/MS to determine in vitro clearance (CLint) of the compounds. The Agilent 6410 mass spectrometer (Agilent, USA) combined with the Agilent 1260 Infinity II HPLC liquid chromatograph (Agilent, USA) and a cooling autosampler controlled by MassHunter software (Agilent, USA) was used as an HPLC-MS/MS system. Chromatographic analysis was performed on a C18 reversed-phase HPLC column (Agilent, Waters or equivalent) in a gradient elution mode in a system of mobile phases: 0.1% formic acid in water/0.1% formic acid in acetonitrile, flow rate: 0.5 ml/min, column T=35° C. Mass spectrometric detection was performed with electrospray ionization in multiple reaction monitoring mode. Precursor ions, fragment ions and collision energies for each substance were selected experimentally.
A graph of dependence of the logarithmic ratio between substance's peak area and internal standard's peak area vs time was built. The dependent coefficient of this line corresponded to the elimination rate constant k, on the basis of which the in vitro clearance CLint was calculated:
Based on resulting in vitro clearance CLint values, the microsomal stability of the selected compounds for humans, rats and mice was concluded.

CDK13/Cyclin K = CDK13/Cyclin K (Homo sapiens, UniProt Q14004); assay: Inhibition of CDK13/Cyclin K kinase activity (ADP-Glo); format: biochemical
Description: Measurements were carried out in a 5 μl reaction volume using a 384-well plate (Corning Inc., order no. 4513). The analyzed substances were titrated from 50 μM in increments of 4 at 11 concentration points in a normal strength kinase buffer A (Thermo Fisher Scientific Inc, cat. no. PV3189) supplemented with DTT (Sigma, orde. no. 646563-10X.5ML) and prepared with water (Panreac, order no. 701074). Kinase was diluted in an analogous buffer, mixed with test compounds in plate wells and preincubated for 10 minutes at 25° C. Following incubation, a mixture of reaction substrate (CDKtide (SignalChem, order no. C06-58) or Histone H1 (SignalChem, order no. H10-54N) or PDKtide (SignalChem, order no. P10-58) and ATP (SignalChem, order no. V915B) prepared on a normal strength kinase buffer A was added. 1% solution of dimethyl sulfoxide (DMSO) (Sigma-Aldrich, order no. D2438) in the reaction volume was used as a negative control. The final concentrations of all reaction components are shown in Table 5. The plate was centrifuged at 400 rcf (Eppendorf, 5804 R) for 1 minute and incubated for 40-60 minutes at 25° C. The amount of ATP consumed in the kinase reaction was then measured using the ADP-Glo™ detection system. Luminescence signal was measured using Spark 20M tablet multifunction reader (Tecan Group Ltd, Switzerland). IC50 value was calculated using Magellan 7.2 (Tecan Group Ltd, Switzerland) by approximating experimental points by four-parameter model with the optimization by Levenberg-Marquardt:
[formula] • where A is the upper asymptote; D is the lower asymptote; C is IC50, half-maximal inhibitory concentration of kinase, nM; B is the curvature (slope).

[2] = Blood-brain barrier permeability: PK in mice brain homogenate following oral administration; format: in vivo, CD-1 mice; details: male, CD-1, mouse, dose 10 mg/kg; for Kp: brain homogenate / plasma, mice, read-out: AUCbrain/AUCplasma; for AUC(0-t) / Cmax / Tmax / half-life: mice brain homogenate; for half-life: read-out: t½ (converted)
Description: The ability of substances to penetrate the blood-brain barrier and enter the central nervous system (mouse brain) was evaluated by the ratio of their areas under pharmacokinetic curves in […] and blood plasma following oral administration, characterizing tissue bioavailability to the […], and expressed as the AUCbrain/AUCplasma coefficient.
Pharmacokinetic studies of the compounds were carried out on CD-1 mice, males, aged about 8 weeks, weighing 16-29 g. Animals were subjected a single oral (PO) administration (intragastrically) at a dose of 10 mg/kg in a formulation in the form of a 0.2% solution of hydroxypropyl methylcellulose (HPMC) in a 5% aqueous solution of glucose.
21 animals were used for each substance. All mice were weighed and randomized before dosing.
3 animals were used for each time point. Biomaterials were collected from each animal at one time point. At least 12 h before the start of the experiment, the animals were deprived of food while maintaining free access to water. Blood and brain samples were collected 0.5, 2, 4, 6, 8, 12 and 16 h after administration of the substance.
All manipulations were carried out analogously to Example 54.
Perfusion of mice brains was carried out with saline solution via the vascular system. To this end, the chest was opened, the right atrium was incised with microsurgical scissors, and saline cooled to 4° C. was administered using a 10-ml syringe into the left ventricle until the liver turned white. After washing, the skull was opened and the brain removed, it was weighed and transferred to labeled 5 ml tubes.
A 4-fold volume of water was added to the brain suspension and homogenized using a homogenizer (Omni Bead Ruptor 24) 2 times for 45 seconds. Analogously, the intact mice brain homogenate was prepared, which was then used to prepare calibration samples and QC samples. The calibration curve was generated by analyzing brain homogenate samples with supplementations of known amounts of the standard of the compound being determined.
Samples were precipitated with cooled acetonitrile at 1:4 ratio, containing the internal standard tolbutamide (Sigma, T0891) at a concentration of 50 ng/ml. Samples were stirred on a vortex mixer (G560E, Scientific Industries) for 10 seconds and kept at 4° C. for 15 minutes to precipitate proteins, then centrifuged (5417R centrifuge, Eppendorf) for 10 minutes at 1500 g. […] of supernatants were collected and transferred to corresponding wells of a 96-well plate for HPLC-MS/MS analysis. Quantitative determination of test compounds in brain homogenates was carried out analogously to the procedure described in Example 54. Lower limit of quantitative determination of test compounds in brain homogenate was 0.3 ng/ml.
Pharmacokinetic analysis of data was performed analogously to the procedure described in Example 54.
In addition to main PK parameters, the ratio of concentration in the brain and plasma at the studied time points (AUCbrain/AUCplasma) was calculated to assess bioavailability in the brain (permeability through the blood-brain barrier).

[3] = mean of multiple measurement series, ATP 10 μM, read-out: CDK13/Cyclin K IC50
[4] = mean value from several measurements, read-out: IC50 CDK13/Cyclin K

Sequence of CDK13/Cyclin K (Q14004 whole entry): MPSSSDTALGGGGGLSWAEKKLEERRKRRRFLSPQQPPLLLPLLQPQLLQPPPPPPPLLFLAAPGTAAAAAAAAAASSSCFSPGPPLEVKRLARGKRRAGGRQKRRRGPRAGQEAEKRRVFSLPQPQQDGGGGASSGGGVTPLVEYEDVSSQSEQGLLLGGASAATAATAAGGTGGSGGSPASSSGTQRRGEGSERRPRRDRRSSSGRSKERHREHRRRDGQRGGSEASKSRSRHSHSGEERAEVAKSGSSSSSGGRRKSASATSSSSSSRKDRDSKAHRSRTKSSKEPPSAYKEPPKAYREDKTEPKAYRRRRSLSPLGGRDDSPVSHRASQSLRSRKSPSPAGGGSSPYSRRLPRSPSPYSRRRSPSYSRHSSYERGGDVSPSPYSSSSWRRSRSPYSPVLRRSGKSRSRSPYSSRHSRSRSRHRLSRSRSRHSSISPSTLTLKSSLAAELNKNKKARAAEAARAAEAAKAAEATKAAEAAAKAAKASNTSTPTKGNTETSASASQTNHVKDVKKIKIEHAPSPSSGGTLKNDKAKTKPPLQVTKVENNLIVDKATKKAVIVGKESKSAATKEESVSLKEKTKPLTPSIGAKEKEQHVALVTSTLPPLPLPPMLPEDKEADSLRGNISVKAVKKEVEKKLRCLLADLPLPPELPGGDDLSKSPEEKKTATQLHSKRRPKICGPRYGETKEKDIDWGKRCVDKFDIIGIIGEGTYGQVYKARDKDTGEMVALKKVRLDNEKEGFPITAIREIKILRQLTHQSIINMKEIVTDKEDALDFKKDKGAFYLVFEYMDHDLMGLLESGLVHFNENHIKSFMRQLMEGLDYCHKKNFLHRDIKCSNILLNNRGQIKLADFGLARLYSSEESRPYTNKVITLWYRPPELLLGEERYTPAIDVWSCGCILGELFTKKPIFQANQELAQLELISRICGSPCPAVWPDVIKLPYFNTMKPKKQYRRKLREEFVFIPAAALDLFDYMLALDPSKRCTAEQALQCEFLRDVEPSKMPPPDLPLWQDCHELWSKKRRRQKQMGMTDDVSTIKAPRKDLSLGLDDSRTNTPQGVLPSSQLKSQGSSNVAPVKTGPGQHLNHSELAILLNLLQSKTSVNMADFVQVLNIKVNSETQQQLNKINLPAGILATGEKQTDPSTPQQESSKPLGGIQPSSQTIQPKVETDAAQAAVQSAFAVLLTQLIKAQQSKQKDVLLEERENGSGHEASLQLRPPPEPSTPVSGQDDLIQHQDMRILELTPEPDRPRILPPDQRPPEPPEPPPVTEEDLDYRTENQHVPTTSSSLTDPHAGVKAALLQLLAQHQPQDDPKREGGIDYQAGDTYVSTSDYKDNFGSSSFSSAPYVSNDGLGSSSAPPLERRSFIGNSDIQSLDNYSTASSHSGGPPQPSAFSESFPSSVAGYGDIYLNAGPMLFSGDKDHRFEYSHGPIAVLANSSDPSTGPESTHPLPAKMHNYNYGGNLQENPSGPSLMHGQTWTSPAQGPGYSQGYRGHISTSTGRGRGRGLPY
Sequence of CDK13/Cyclin K (O75909 whole entry partner): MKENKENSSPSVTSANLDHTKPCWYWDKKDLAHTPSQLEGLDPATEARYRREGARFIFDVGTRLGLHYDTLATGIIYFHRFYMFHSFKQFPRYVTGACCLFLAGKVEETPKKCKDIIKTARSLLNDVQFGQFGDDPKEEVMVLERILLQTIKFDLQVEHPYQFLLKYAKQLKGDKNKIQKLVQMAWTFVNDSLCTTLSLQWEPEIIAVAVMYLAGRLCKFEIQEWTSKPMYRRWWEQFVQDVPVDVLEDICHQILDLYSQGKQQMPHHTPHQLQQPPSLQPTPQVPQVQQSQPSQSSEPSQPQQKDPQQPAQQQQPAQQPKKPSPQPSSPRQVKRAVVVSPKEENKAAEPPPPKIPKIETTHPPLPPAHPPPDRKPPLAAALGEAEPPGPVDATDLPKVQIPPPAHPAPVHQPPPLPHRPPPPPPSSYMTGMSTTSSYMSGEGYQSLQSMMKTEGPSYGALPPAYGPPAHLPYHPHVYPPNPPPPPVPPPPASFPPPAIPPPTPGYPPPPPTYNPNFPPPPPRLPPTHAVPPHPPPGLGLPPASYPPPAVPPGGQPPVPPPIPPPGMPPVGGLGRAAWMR

Row | SMILES | RLM Clint [1] | IC50 (CDK13/Cyclin K; [3]) | IC50 (CDK13/Cyclin K; [4]) | Kp [2] | AUC(0-t) [2] | Cmax [2] | Tmax [2] | half-life [2]
1 | CN1CCCc2c(-c3nc(N[C@H]4CCCNC4)ncc3C(F)(F)F)c[nH]c2C1=O [CDK7_953, 7-methyl-3-(2-{[(3S)-piperidin-3-yl]amino}-5-(trifluoromethyl)py-rimidin-4-yl)-1H,4H,5H,6H,7H, 8H-pyrrolo[2,3-c]azepin-8-one] | A (Clint < 20 μl/(min · mg of protein)) | 20 nM | 5 to 50 nM | – | – | – | – | –
2 | Cn1cc(-n2ccc3c(-c4nc(N[C@H]5CCC(C)(C)NC5)ncc4C(F)(F)F)c[nH]c3c2=O)cn1 [CDK7_1123, 3-(2-{[(3S)-6,6-dimethylpiperidin-3-yl]amino}-5-(trifluoromethyl)py-rimidin-4-yl)-6-(1-methyl-1H-pyrazol-4-yl)-1H,6H,7H-pyrrolo[2,3-c]pyridin-7-one] | – | 25 nM | 5 to 50 nM | – | – | – | – | –
3 | CN1CCCc2c(-c3nc(N[C@H]4CCC(C)(C)NC4)ncc3C(F)(F)F)c[nH]c2C1=O [CDK7_1187, 3-(2-{[(3S)-6,6-dimethylpiperidin-3-yl]amino}-5-(trifluoromethyl)py-rimidin-4-yl)-7-methyl-1H,4H,5H,6H,7H, 8H-pyrrolo[2,3-c]azepin-8-one] | A (Clint < 20 μl/(min · mg of protein)) | 81 nM | 50 to 200 nM | – | – | – | – | –
4 | O=C1c2[nH]cc(-c3nc(NC4CCCNC4)ncc3C(F)(F)F)c2CCCN1C1CC1 (stereo not shown) [CDK7_1188] | A (Clint < 20 μl/(min · mg of protein)) | – | – | – | – | – | – | –
5 | CC1(C)CC[C@H](Nc2ncc(C(F)(F)F)c(-c3c[nH]c4c3CCCN(C3CC3)C4=O)n2)CN1 [CDK7_1225, 7-cyclopropyl-3-(2-{[(3S)-6,6-dimethylpiperidin-3-yl]amino}-5-(trifluoromethyl)py-rimidin-4-yl)-1H,4H,5H,6H,7H, 8H-pyrrolo[2,3-c]azepin-8-one] | A (Clint < 20 μl/(min · mg of protein)) | 203 nM | > 200 nM | 0.165 | 855 ng·h/mL | 93.8 ng/mL | 6 h | 140 min
6 | CC1(C)CC[C@H](Nc2ncc(C(F)(F)F)c(-c3c[nH]c4c3CCCN(CC3CC3)C4=O)n2)CN1 [CDK7_1227, 7-(cyclopropylmeth-yl)-3-(2-{[(3S)-6,6-dimethylpiperidin-3-yl]amino}-5-(trifluoromethyl)py-rimidin-4-yl)-1H,4H,5H,6H,7H, 8H-pyrrolo[2,3-c]azepin-8-one] | A (Clint < 20 μl/(min · mg of protein)) | – | – | – | – | – | – | –
7 | CC(C)N1CCCc2c(-c3nc(N[C@H]4CCC(C)(C)NC4)ncc3C(F)(F)F)c[nH]c2C1=O [CDK7_1229, 3-(2-{[(3S)-6,6-dimethylpiperidin-3-yl]amino}-5-(trifluoromethyl)py-rimidin-4-yl)-7-(propan-2-yl)-1H,4H,5H,6H,7H, 8H-pyrrolo[2,3-c]azepin-8-one] | A (Clint < 20 μl/(min · mg of protein)) | 242 nM | > 200 nM | 0.182 | 909 ng·h/mL | 136 ng/mL | 0.5 h | 135 min
8 | CCN1CCCc2c(-c3nc(N[C@H]4CCC(C)(C)NC4)ncc3C(F)(F)F)c[nH]c2C1=O [CDK7_1259, 3-(2-{[(3S)-6,6-dimethylpiperidin-3-yl]amino}-5-(trifluoromethyl)py-rimidin-4-yl)-7-ethyl-1H,4H,5H,6H,7H, 8H-pyrrolo[2,3-c]azepin-8-one] | A (Clint < 20 μl/(min · mg of protein)) | – | – | – | – | – | – | –
9 | O=C1c2[nH]cc(-c3nc(N[C@H]4CCC5(CC5)NC4)ncc3C(F)(F)F)c2CCCN1C1CC1 [CDK7_1276, 3-(2-{[(6S)-4-azaspiro[2.5]octan-6-yl]amino}-5-(trifluoromethyl)py-rimidin-4-yl)-7-cyclopropyl-1H,4H,5H,6H,7H, 8H-pyrrolo[2,3-c]azepin-8-one] | B (50 μl/(min · mg of protein) > Clint > 20 μl/(min · mg of protein)) | 152 nM | 50 to 200 nM | 0.243 | 1940 ng·h/mL | 335 ng/mL | 0.5 h | 119 min
10 | CC(C)N1CCCc2c(-c3nc(N[C@H]4CCC5(CC5)NC4)ncc3C(F)(F)F)c[nH]c2C1=O [CDK7_1277, 3-(2-{[(6S)-4-azaspiro[2.5]octan-6-yl]amino}-5-(trifluoromethyl)py-rimidin-4-yl)-7-(propan-2-yl)-1H,4H,5H,6H,7H, 8H-pyrrolo[2,3-c]azepin-8-one] | B (50 μl/(min · mg of protein) > Clint > 20 μl/(min · mg of protein)) | 425 nM | > 200 nM | 0.302 | 1750 ng·h/mL | 226 ng/mL | 2 h | 166 min
